{"source": "patent US6506772B1", "about": "“Substituted [1,2,4]triazolo[1,5a]pyridine derivatives with activity as adenosine receptor ligands” (Hoffmann-La Roche Inc., priority 2000, dated 2003)", "key": {"[1]": {"target": "T1, human adenosine A2A receptor (Homo sapiens, UniProt P29274)", "T1 construct": "expressed in transfected cells; host or cells: CHO cells, Semliki Forest virus expression system; membrane preparation", "T1 sequence (P29274 whole entry)": "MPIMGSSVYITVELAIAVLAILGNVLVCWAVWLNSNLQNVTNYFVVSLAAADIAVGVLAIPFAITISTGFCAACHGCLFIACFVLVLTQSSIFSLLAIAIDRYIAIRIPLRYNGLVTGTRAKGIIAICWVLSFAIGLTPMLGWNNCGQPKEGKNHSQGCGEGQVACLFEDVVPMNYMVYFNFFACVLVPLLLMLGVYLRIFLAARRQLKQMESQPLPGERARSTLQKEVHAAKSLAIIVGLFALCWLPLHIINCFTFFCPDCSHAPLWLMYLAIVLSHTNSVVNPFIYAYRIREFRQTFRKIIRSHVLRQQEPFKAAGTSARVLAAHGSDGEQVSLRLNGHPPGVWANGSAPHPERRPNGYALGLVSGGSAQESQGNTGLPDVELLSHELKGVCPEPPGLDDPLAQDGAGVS", "test": "Human adenosine A2A receptor [3H]-SCH-58261 binding assay", "settings": "for Ki: affinity to human adenosine A2A receptor, read-out: Ki HA2A; for selectivity (A1/A2a): calculated ratio of the affinity to the HA1 receptor to the HA2a receptor"}, "HA1 adenosine receptor": {"target": "T2, HA1 adenosine receptor (Homo sapiens, UniProt P30542)", "T2 sequence (P30542 1-326)": "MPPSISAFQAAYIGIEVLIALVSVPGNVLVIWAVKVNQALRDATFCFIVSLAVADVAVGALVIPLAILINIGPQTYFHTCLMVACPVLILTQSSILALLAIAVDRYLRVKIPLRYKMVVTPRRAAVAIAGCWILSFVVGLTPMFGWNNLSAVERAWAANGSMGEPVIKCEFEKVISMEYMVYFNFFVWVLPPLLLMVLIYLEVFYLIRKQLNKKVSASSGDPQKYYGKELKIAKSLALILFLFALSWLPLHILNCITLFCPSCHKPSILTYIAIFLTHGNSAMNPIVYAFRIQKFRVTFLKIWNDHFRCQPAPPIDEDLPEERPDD", "test": "Human adenosine A1 receptor affinity (Ki hA1)", "type": "binding", "settings": "affinity to human adenosine A1 receptor"}}}
{"smiles": "Nc1cc(C(=O)N2CCSCC2)cc2nc(-c3ccc(Cl)o3)nn12", "note": "[Example 256, [5-Amino-2-(5-chloro-furan-2-yl)-[1,2,4]triazolo[1,5-a]pyridin-7-yl]-thiomorpholin-4-yl-methanone]", "values": [{"measurement": "Ki", "setting": "[1]", "result": 24.4, "unit": "nM"}, {"measurement": "selectivity (A1/A2a)", "setting": "[1]", "result": 17.7}, {"measurement": "Ki", "setting": "HA1 adenosine receptor", "result": 430, "unit": "nM"}]}
{"smiles": "CC1CN(C(=O)c2cc(N)n3nc(-c4ccc(Cl)o4)nc3c2)CC(C)O1", "note": "(stereo not drawn) [Example 257, [5-Amino-2-(5-chloro-furan-2-yl)-[1,2,4]triazolo[1,5-a]pyridin-7-yl]-(2,6-dimethyl-morpholin-4-yl)-methanone]", "values": [{"measurement": "Ki", "setting": "[1]", "result": 28.9, "unit": "nM"}, {"measurement": "selectivity (A1/A2a)", "setting": "[1]", "result": 28.3}, {"measurement": "Ki", "setting": "HA1 adenosine receptor", "result": 819, "unit": "nM"}]}
{"smiles": "CC1CCC(C)N1C(=O)c1cc(N)n2nc(-c3ccc(Cl)o3)nc2c1", "note": "(stereo not drawn) [Example 258, [5-Amino-2-(5-chloro-furan-2-yl)-[1,2,4]triazolo[1,5-a]pyridin-7-yl]-(2,5-dimethyl-pyrrolidin-1-yl)-methanone]", "values": [{"measurement": "Ki", "setting": "[1]", "result": 7.2, "unit": "nM"}, {"measurement": "selectivity (A1/A2a)", "setting": "[1]", "result": 30.6}, {"measurement": "Ki", "setting": "HA1 adenosine receptor", "result": 221, "unit": "nM"}]}
{"smiles": "NC(=O)C1CCN(C(=O)c2cc(N)n3nc(-c4ccc(Cl)o4)nc3c2)CC1", "note": "[Example 259, 1-[5-Amino-2-(5-chloro-furan-2-yl)-[1,2,4]triazolo[1,5-a]pyridine-7-carbonyl]-piperidine-4-carboxylic acid amide]", "values": [{"measurement": "Ki", "setting": "[1]", "result": 119, "unit": "nM"}, {"measurement": "selectivity (A1/A2a)", "setting": "[1]", "result": 4.5}, {"measurement": "Ki", "setting": "HA1 adenosine receptor", "result": 540, "unit": "nM"}]}
{"smiles": "COCCN(CCOC)C(=O)c1cc(N)n2nc(-c3ccc(Cl)o3)nc2c1", "note": "[Example 260, 5-Amino-2-(5-chloro-furan-2-yl)-[1,2,4]triazolo[1,5-a]pyridine-7-carboxylic acid bis-(2-methoxy-ethyl)-amide]", "values": [{"measurement": "Ki", "setting": "[1]", "result": 13.4, "unit": "nM"}, {"measurement": "selectivity (A1/A2a)", "setting": "[1]", "result": 20.2}, {"measurement": "Ki", "setting": "HA1 adenosine receptor", "result": 270, "unit": "nM"}]}
{"smiles": "CCN(Cc1ccccc1)C(=O)c1cc(N)n2nc(-c3ccc(Cl)o3)nc2c1", "note": "[Example 261, 5-Amino-2-(5-chloro-furan-2-yl)-[1,2,4]triazolo[1,5-a]pyridine-7-carboxylic acid benzyl-ethyl-amide]", "values": [{"measurement": "Ki", "setting": "[1]", "result": 2.6, "unit": "nM"}, {"measurement": "selectivity (A1/A2a)", "setting": "[1]", "result": 14.7}, {"measurement": "Ki", "setting": "HA1 adenosine receptor", "result": 37.7, "unit": "nM"}]}
{"smiles": "CCN(Cc1ccncc1)C(=O)c1cc(N)n2nc(-c3ccc(Cl)o3)nc2c1", "note": "[Example 262, 5-Amino-2-(5-chloro-furan-2-yl)-[1,2,4]triazolo[1,5-a]pyridine-7-carboxylic acid ethyl-pyridin-4-ylmethyl-amide]", "values": [{"measurement": "Ki", "setting": "[1]", "result": 2.9, "unit": "nM"}, {"measurement": "selectivity (A1/A2a)", "setting": "[1]", "result": 36.8}, {"measurement": "Ki", "setting": "HA1 adenosine receptor", "result": 107, "unit": "nM"}]}
{"smiles": "Nc1cc(C(=O)N2CC=C(c3ccccc3)CC2)cc2nc(-c3ccc(Cl)o3)nn12", "note": "[Example 263, [5-Amino-2-(5-chloro-furan-2-yl)-[1,2,4]triazolo[1,5-a]pyridin-7-yl]-(4-phenyl-3,6-dihydro-2H-pyridin-1-yl)-methanone]", "values": [{"measurement": "Ki", "setting": "[1]", "result": 39.8, "unit": "nM"}, {"measurement": "selectivity (A1/A2a)", "setting": "[1]", "result": 7.6}, {"measurement": "Ki", "setting": "HA1 adenosine receptor", "result": 304, "unit": "nM"}]}
{"smiles": "CCN(C)C(=O)c1cc(N)n2nc(-c3ccc(Br)o3)nc2c1", "note": "[Example 264, 5-Amino-2-(5-bromo-furan-2-yl)-[1,2,4]triazolo[1,5-a]pyridine-7-carboxylic acid ethyl-methyl-amide]", "values": [{"measurement": "Ki", "setting": "[1]", "result": 6.5, "unit": "nM"}, {"measurement": "selectivity (A1/A2a)", "setting": "[1]", "result": 42.7}, {"measurement": "Ki", "setting": "HA1 adenosine receptor", "result": 277, "unit": "nM"}]}
{"smiles": "Nc1cc(C(=O)N2CC=CC2)cc2nc(-c3ccc(Br)o3)nn12", "note": "[Example 265, [5-Amino-2-(5-bromo-furan-2-yl)-[1,2,4]triazolo[1,5-a]pyridin-7-yl]-(2,5-dihydro-pyrrol-1-yl)-methanone]", "values": [{"measurement": "Ki", "setting": "[1]", "result": 7.4, "unit": "nM"}, {"measurement": "selectivity (A1/A2a)", "setting": "[1]", "result": 76.2}, {"measurement": "Ki", "setting": "HA1 adenosine receptor", "result": 564, "unit": "nM"}]}
{"smiles": "C#CCN(C)C(=O)c1cc(N)n2nc(-c3ccc(Br)o3)nc2c1", "note": "[Example 266, 5-Amino-2-(5-bromo-furan-2-yl)-[1,2,4]triazolo[1,5-a]pyridine-7-carboxylic acid methyl-prop-2-ynyl-amide]", "values": [{"measurement": "Ki", "setting": "[1]", "result": 3.1, "unit": "nM"}, {"measurement": "selectivity (A1/A2a)", "setting": "[1]", "result": 79.4}, {"measurement": "Ki", "setting": "HA1 adenosine receptor", "result": 246, "unit": "nM"}]}
{"smiles": "C=CCN(C)C(=O)c1cc(N)n2nc(-c3ccc(Br)o3)nc2c1", "note": "[Example 267, 5-Amino-2-(5-bromo-furan-2-yl)-[1,2,4]triazolo[1,5-a]pyridine-7-carboxylic acid allyl-methyl-amide]", "values": [{"measurement": "Ki", "setting": "[1]", "result": 4.3, "unit": "nM"}, {"measurement": "selectivity (A1/A2a)", "setting": "[1]", "result": 42.0}, {"measurement": "Ki", "setting": "HA1 adenosine receptor", "result": 181, "unit": "nM"}]}
{"smiles": "CC(C)N(C)C(=O)c1cc(N)n2nc(-c3ccc(Br)o3)nc2c1", "note": "[Example 269, 5-Amino-2-(5-bromo-furan-2-yl)-[1,2,4]triazolo[1,5-a]pyridine-7-carboxylic acid isopropyl-methyl-amide]", "values": [{"measurement": "Ki", "setting": "[1]", "result": 2.7, "unit": "nM"}, {"measurement": "selectivity (A1/A2a)", "setting": "[1]", "result": 40.9}, {"measurement": "Ki", "setting": "HA1 adenosine receptor", "result": 110, "unit": "nM"}]}
{"smiles": "CCCCN(C)C(=O)c1cc(N)n2nc(-c3ccc(Br)o3)nc2c1", "note": "[Example 271, 5-Amino-2-(5-bromo-furan-2-yl)-[1,2,4]triazolo[1,5-a]pyridine-7-carboxylic acid butyl-methyl-amide]", "values": [{"measurement": "Ki", "setting": "[1]", "result": 6.5, "unit": "nM"}, {"measurement": "selectivity (A1/A2a)", "setting": "[1]", "result": 22.9}, {"measurement": "Ki", "setting": "HA1 adenosine receptor", "result": 149, "unit": "nM"}]}
{"smiles": "CCN(C(=O)c1cc(N)n2nc(-c3ccc(Br)o3)nc2c1)C(C)C", "note": "[Example 272, 5-Amino-2-(5-bromo-furan-2-yl)-[1,2,4]triazolo[1,5-a]pyridine-7-carboxylic acid ethyl-isopropyl-amide]", "values": [{"measurement": "Ki", "setting": "[1]", "result": 2.2, "unit": "nM"}, {"measurement": "selectivity (A1/A2a)", "setting": "[1]", "result": 36.8}, {"measurement": "Ki", "setting": "HA1 adenosine receptor", "result": 81, "unit": "nM"}]}
{"smiles": "CC1C=CC(C)N1C(=O)c1cc(N)n2nc(-c3ccc(Br)o3)nc2c1", "note": "(stereo not drawn) [Example 273, [5-Amino-2-(5-bromo-furan-2-yl)-[1,2,4]triazolo[1,5-a]pyridin-7-yl]-(2,5-dimethyl-2,5-dihydro-pyrrol-1-yl)-methanone]", "values": [{"measurement": "Ki", "setting": "[1]", "result": 3.9, "unit": "nM"}, {"measurement": "selectivity (A1/A2a)", "setting": "[1]", "result": 64.4}, {"measurement": "Ki", "setting": "HA1 adenosine receptor", "result": 251, "unit": "nM"}]}
{"smiles": "C=CCN(CC=C)C(=O)c1cc(N)n2nc(-c3ccc(Br)o3)nc2c1", "note": "[Example 274, 5-Amino-2-(5-bromo-furan-2-yl)-[1,2,4]triazolo[1,5-a]pyridine-7-carboxylic acid diallylamide]", "values": [{"measurement": "Ki", "setting": "[1]", "result": 2.8, "unit": "nM"}, {"measurement": "selectivity (A1/A2a)", "setting": "[1]", "result": 41.6}, {"measurement": "Ki", "setting": "HA1 adenosine receptor", "result": 116, "unit": "nM"}]}
{"smiles": "CC1CCC(C)N1C(=O)c1cc(N)n2nc(-c3ccc(Br)o3)nc2c1", "note": "(stereo not drawn) [Example 275, [5-Amino-2-(5-bromo-furan-2-yl)-[1,2,4]triazolo[1,5-a]pyridin-7-yl]-(2,5-dimethyl-pyrrolidin-1-yl)-methanone]", "values": [{"measurement": "Ki", "setting": "[1]", "result": 5.4, "unit": "nM"}, {"measurement": "selectivity (A1/A2a)", "setting": "[1]", "result": 38.7}, {"measurement": "Ki", "setting": "HA1 adenosine receptor", "result": 209, "unit": "nM"}]}
{"smiles": "CC(C)N(C(=O)c1cc(N)n2nc(-c3ccc(Br)o3)nc2c1)C(C)C", "note": "[Example 276, 5-Amino-2-(5-bromo-furan-2-yl)-[1,2,4]triazolo[1,5-a]pyridine-7-carboxylic acid diisopropylamide]", "values": [{"measurement": "Ki", "setting": "[1]", "result": 10.1, "unit": "nM"}, {"measurement": "selectivity (A1/A2a)", "setting": "[1]", "result": 22.6}, {"measurement": "Ki", "setting": "HA1 adenosine receptor", "result": 229, "unit": "nM"}]}
{"smiles": "CCCCN(CC)C(=O)c1cc(N)n2nc(-c3ccc(Br)o3)nc2c1", "note": "[Example 277, 5-Amino-2-(5-bromo-furan-2-yl)-[1,2,4]triazolo[1,5-a]pyridine-7-carboxylic acid butyl-ethyl-amide]", "values": [{"measurement": "Ki", "setting": "[1]", "result": 3.2, "unit": "nM"}, {"measurement": "selectivity (A1/A2a)", "setting": "[1]", "result": 40.3}, {"measurement": "Ki", "setting": "HA1 adenosine receptor", "result": 129, "unit": "nM"}]}
{"smiles": "CCCCCN(C)C(=O)c1cc(N)n2nc(-c3ccc(Br)o3)nc2c1", "note": "[Example 278, 5-Amino-2-(5-bromo-furan-2-yl)-[1,2,4]triazolo[1,5-a]pyridine-7-carboxylic acid methyl-pentyl-amide]", "values": [{"measurement": "Ki", "setting": "[1]", "result": 5.6, "unit": "nM"}, {"measurement": "selectivity (A1/A2a)", "setting": "[1]", "result": 16.8}, {"measurement": "Ki", "setting": "HA1 adenosine receptor", "result": 94.3, "unit": "nM"}]}
{"smiles": "CN(C)CCN(C)C(=O)c1cc(N)n2nc(-c3ccc(Br)o3)nc2c1", "note": "[Example 279, 5-Amino-2-(5-bromo-furan-2-yl)-[1,2,4]triazolo[1,5-a]pyridine-7-carboxylic acid (2-dimethylamino-ethyl)-methyl-amide]", "values": [{"measurement": "Ki", "setting": "[1]", "result": 124, "unit": "nM"}, {"measurement": "selectivity (A1/A2a)", "setting": "[1]", "result": 8.5}, {"measurement": "Ki", "setting": "HA1 adenosine receptor", "result": 1060, "unit": "nM"}]}
